The values that follow come from patent US11629169B2, “Use of peptides as therapeutic agent for autoimmune diseases and bone diseases” (KINE SCIENCES CO., LTD., priority 2017, dated 2023).

Assay [1] concerns collagen-induced arthritis (CIA) mouse model. Kind of assay: Rheumatoid arthritis treatment effect in collagen-induced arthritis (CIA) mouse model. In kind it is in vivo, DBA/1J mouse. Particulars: CIA mice, intraperitoneally 3 times a week after second immunization; similar efficacy compared to positive control MTX. The protocol: In order to confirm a rheumatoid arthritis improvement effect of the peptides prepared in Example 1, a rheumatoid arthritis mouse model was prepared with reference to a known literature (Nat Protoc. 2007; 2 (5):
Specifically, a CIA mouse model is a mouse model most commonly used in a rheumatoid arthritis animal test as an autoimmune disease arthritis model having characteristics similar to human rheumatoid arthritis. In the CIA mouse model, bovine type II collagen (Chondrex, USA) was mixed and emulsified with a Freund's complete adjuvant (Chondrex, USA) at 1:1, and then first immunization was performed by injecting 50 μl of the emulsified collagen solution intradermally into a 6-week-old DBA/1J mouse tail. On 2 weeks after the first immunization, bovine type II collagen was mixed and emulsified with a Freund's incomplete adjuvant (Chondrex, USA) at 1:1, and then second immunization (boosting) was performed by injecting 50 μl of the emulsified collagen solution induced) intradermally into the mouse tail. After the second immunization, each peptide was intraperitoneally administered 3 times a week from the following day to observe a therapeutic effect of the peptides for rheumatoid arthritis.
In order to examine the progression of rheumatoid arthritis according to the peptide treatment of the present invention, the severity of rheumatoid arthritis over time was evaluated and measured by a rheumatoid arthritis progress index.
At this time, the arthritis progress index was evaluated as Points 0 to 4 per leg in accordance with the arthritis progress evaluation criteria by Rossoliniec, etc. in Table 2 below and shown to total Points 0 to 16 (sum of four legs). Thereafter, an average value of the results evaluated by the two observers was calculated to quantify the severity of arthritis.

The subject of assay [2] is naive CD4+ T cells extracted from lymph nodes of the mouse. Put plainly: Th17 cell differentiation inhibition (CD4+IL-17+ T cell population). The format is cell-based. Particulars: IL-6 20 ng/ml and TGF-beta 5 ng/ml with TCR activation; peptide 10 ng/ml to 1000 ng/ml; 3 days; induced group 3.14%, non-induced 1.2%. On the procedure: In order to confirm the efficacy of the synthetic peptides prepared in Example 1 to inhibit Th17 cell differentiation, naive CD4^+ T cells extracted from lymph nodes of the mouse were treated with IL-6 20 ng/ml and TGF-beta 5 ng/ml together with TCR activation to induce differentiation into Th17 cells.
At the same time, three peptides Pep2, Pep3, and Pep4 disclosed in Table 2 of Test Example 1 were treated at a concentration of 10 ng/ml to 1000 ng/ml, respectively. Then, after incubation for 3 days, CD4+IL-17+ T cell population was analyzed.

Regarding PSSPSS (Pep1), the “arthritis improvement (arthritis progress index, total Points 0 to 16)” value in assay [1] is recorded as “efficacy of arthritis improvement was shown”.
PTPPTP (Pep3): the “ratio of Th17 cells (CD4+IL-17+ T cell population)” value in assay [2] is given as “reduced similarly to the group that did not induce differentiation”.
Take PTSPTS (Pep4): the “ratio of Th17 cells (CD4+IL-17+ T cell population)” value in assay [2] is recorded as “reduced similarly to the group that did not induce differentiation”. In addition, the “arthritis improvement (arthritis progress index, total Points 0 to 16)” value in assay [1] was “efficacy of arthritis improvement was shown”.
On the same counts, the results for SSPSSP (Pep2) are “reduced similarly to the group that did not induce differentiation” and “efficacy of arthritis improvement was shown”.
For the substance STSSTS (Pep6), in assay [1], the “arthritis improvement (arthritis progress index, total Points 0 to 16)” value is reported as “efficacy of arthritis improvement was shown”.
